Results from patent US9549556B2, “Macrocyclic picolinamides as fungicides” (DOW AGROSCIENCES LLC, priority 2013, dated 2017).
Like-named read-outs stand apart in the source and are kept apart here.

Legend:
[1] = test system: Blumeria graminis f. sp. hordei; assay: Barley powdery mildew (ERYSGH) disease control; assay type: in vivo; conditions: 1 DP, 100 ppm
Cercospora beticola = assay: Leaf spot of sugar beets (CERCBE) disease control; assay type: in vivo; conditions: 1 DP, 100 ppm, sugar beet
Puccinia triticina = assay: Wheat brown rust (PUCCRT) disease control on wheat seedlings; assay type: in vivo; conditions: read-out: PUCCRT disease control rating (% Control); for pest or weed control at 121.5 g/ha: 121.5 g/H, low volume (track spray) application; for pest or weed control at 100 ppm: high volume application
Leptosphaeria nodorum = assay: Wheat glume blotch (LEPTNO) disease control; assay type: in vivo; conditions: 1 DP, 100 ppm
Septoria tritici = assay: Leaf blotch of wheat (SEPTTR) disease control on wheat seedlings; assay type: in vivo, Mycosphaerella graminicola (anamorph Septoria tritici); conditions: Zymoseptoria tritici, read-out: SEPTTR disease control rating (% Control); for pest or weed control at 121.5 g/ha: 121.5 g/H, low volume (track spray) application; for pest or weed control at 100 ppm: high volume application
Description: Evaluation of Fungicidal Activity: Leaf Blotch of Wheat (Mycosphaerella graminicola; Anamorph: Septoria tritici; Bayer Code […]) Technical grades of materials were dissolved in acetone, which were then mixed with nine volumes of water containing 110 ppm Triton X-100. The fungicide solutions were applied onto wheat seedlings using an automated booth sprayer to run-off. All sprayed plants were allowed to air dry prior to further handling. All fungicides were evaluated using the aforementioned method for their activity vs. all target diseases. Wheat leaf blotch and brown rust activity were also evaluated using track spray applications, in which case the fungicides were formulated as EC formulations, containing 0.1% Trycol 5941 in the spray solutions. Wheat plants (variety Yuma) were grown from seed in a greenhouse in 50% mineral soil/50% soil-less Metro mix until the first leaf was fully emerged, with 7-10 seedlings per pot. These plants were inoculated with an aqueous spore suspension of Septoria tritici either prior to or after fungicide treatments. After inoculation the plants were kept in 100% relative humidity (one day in a dark dew chamber followed by two to three days in a lighted dew chamber at 20° C.) to permit spores to germinate and infect the leaf. The plants were then transferred to a greenhouse set at 20° C. for disease to develop. When disease symptoms were fully expressed on the 1st leaves of untreated plants, infection levels were assessed on a scale of 0 to 100 percent disease severity. Percent disease control was calculated using the ratio of disease severity on treated plants relative to untreated plants.

Rhyncosporium secalis = assay: Barley scald (RHYNSE) disease control; assay type: in vivo; conditions: 1 DP, 100 ppm
Erysiphe cichoracearum = assay: Powdery mildew of cucumber (ERYSCI) disease control; assay type: in vivo; conditions: 1 DP, 100 ppm
[2] = test system: Colletotrichum lagenarium; assay: Cucumber anthracnose (COLLLA) disease control; assay type: in vivo, Glomerella lagenarium (anamorph Colletotrichum lagenarium); conditions: 1 DP, 100 ppm
Uncinula necator = assay: Grape powdery mildew (UNCINE) disease control; assay type: in vivo; conditions: 1 DP, 100 ppm
Alternaria solani = assay: Tomato early blight (ALTESO) disease control; assay type: in vivo; conditions: 1 DP, 100 ppm
Pyricularia oryzae = assay type: in vivo, Magnaporthe grisea (anamorph Pyricularia oryzae); conditions: 1 DP, 100 ppm, rice

| Compound | pest or weed control at 121.5 g/ha (Puccinia triticina; 24 h, 1DP (1 Day Protectant)) [%] | pest or weed control at 121.5 g/ha (Puccinia triticina; 72 h, 3DC (3 Day Curative)) [%] | pest or weed control at 121.5 g/ha (Septoria tritici; 24 h, 1DP (1 Day Protectant)) [%] | pest or weed control at 121.5 g/ha (Septoria tritici; 72 h, 3DC (3 Day Curative)) [%] | melting point [°C] | pest or weed control at 100 ppm (Puccinia triticina; 24 h, 1DP (1 Day Protectant)) [%] | pest or weed control at 100 ppm (Puccinia triticina; 72 h, 3DC (3 Day Curative)) [%] | pest or weed control at 100 ppm (Septoria tritici; 24 h, 1DP (1 Day Protectant)) [%] | pest or weed control at 100 ppm (Septoria tritici; 72 h, 3DC (3 Day Curative)) [%] | other results |
| --- | --- | --- | --- | --- | --- | --- | --- | --- | --- | --- |
| CCCC[C@H]1[C@H](C)OC(=O)[C@@H](NC(=O)c2nccc(OC)c2OCOC(C)=O)COC[C@@H]1OCC1CC1 [Compound 6] | > 70 | > 70 | > 70 | > 70 | – | – | – | – | – | ERYSGH disease control rating (% Control) [1]: A (>70); CERCBE disease control rating (% Control) (Cercospora beticola): A (>70); LEPTNO disease control rating (% Control) (Leptosphaeria nodorum): A (>70); RHYNSE disease control rating (% Control) (Rhyncosporium secalis): A (>70); ERYSCI disease control rating (% Control) (Erysiphe cichoracearum): A (>70); COLLLA disease control rating (% Control) [2]: A (>70); UNCINE disease control rating (% Control) (Uncinula necator): A (>70); ALTESO disease control rating (% Control) (Alternaria solani): B (≦70); PYRIOR disease control rating (% Control) (Pyricularia oryzae): A (>70) |
| COc1ccnc(C(=O)N[C@H]2COC[C@H](Oc3ccccc3)[C@@H](CCC(C)C)[C@H](C)OC2=O)c1OCOC(C)=O [Compound 32] | > 70 | > 70 | > 70 | > 70 | 44 to 50 | – | – | – | – | – |
| CCCO[C@H]1COC[C@H](NC(=O)OC(C)(C)C)C(=O)O[C@@H](C)[C@@H]1CCC(C)C [Compound 39, tert-butyl ((3S,7R,8S,9S)-8-isopentyl-9-methyl-2-oxo-7-propoxy-1,5-dioxonan-3-yl)carbamate] | – | – | – | – | 74 to 77 | – | – | – | – | – |
| CC(C)CC[C@H]1[C@H](C)OC(=O)[C@@H](NC(=O)OC(C)(C)C)COC[C@@H]1OCc1ccccc1 [Compound 42] | – | – | – | – | 70 to 72 | – | – | – | – | – |
| COc1ccnc(C(=O)N[C@H]2COC[C@H](OCc3ccccc3)[C@@H](CCC(C)C)[C@H](C)OC2=O)c1O [Compound 46] | – | – | – | – | 104 to 106 | > 70 | > 70 | > 70 | < 70 | – |
| CC(C)CC[C@H]1[C@H](C)OC(=O)[C@@H](NC(=O)OC(C)(C)C)COC[C@@H]1OC(=O)C1CC1 [Compound 49, (3S,7R,8S,9S)-3-((tert-butoxycarbonyl)amino)-8-isopentyl-9-methyl-2-oxo-1,5-dioxonan-7-yl cyclopropanecarboxylate] | – | – | – | – | 92 to 95 | – | – | – | – | – |
| CCCO[C@H]1COC[C@H](NC(=O)c2nccc(OC)c2O)C(=O)O[C@@H](C)[C@@H]1CCC(C)C [Compound 53, 3-hydroxy-N-((3S,7R,8S,9S)-8-isopentyl-9-methyl-2-oxo-7-propoxy-1,5-dioxonan-3-yl)-4-methoxypicolinamide] | – | – | – | – | 54 to 57 | > 70 | > 70 | < 70 | < 70 | – |
| COc1ccnc(C(=O)N[C@H]2COC[C@H](OC(=O)C3CC3)[C@@H](CCC(C)C)[C@H](C)OC2=O)c1OCOC(C)=O [Compound 57] | > 70 | > 70 | < 70 | > 70 | 45 to 50 | – | – | – | – | – |
| COc1ccnc(C(=O)N[C@H]2COC[C@H](Oc3ccccc3)[C@@H](CCC(C)C)[C@H](C)OC2=O)c1O [Compound 60] | – | – | – | – | 58 to 62 | > 70 | > 70 | > 70 | < 70 | – |
| CC(C)CC[C@H]1[C@H](C)OC(=O)[C@@H](NC(=O)OC(C)(C)C)COC[C@@H]1O [Compound 66, tert-butyl ((3S,7R,8R,9S)-7-hydroxy-8-isopentyl-9-methyl-2-oxo-1,5-dioxonan-3-yl)carbamate] | – | – | – | – | 112 to 115 | – | – | – | – | – |
| COc1ccnc(C(=O)N[C@H]2COC[C@H](OCc3ccccc3)[C@@H](CCC(C)C)[C@H](C)OC2=O)c1OC(C)=O [Compound 67] | > 70 | > 70 | > 70 | > 70 | 55 to 61 | – | – | – | – | – |
| COc1ccnc(C(=O)N[C@H]2COC[C@H](OCC3CC3)[C@@H](Cc3ccc(F)cc3)[C@H](C)OC2=O)c1OCOC(C)=O [Compound 71] | > 70 | > 70 | > 70 | > 70 | – | – | – | – | – | – |
| COc1ccnc(C(=O)N[C@H]2COC[C@H](OCOCc3ccccc3)[C@@H](Cc3ccccc3)[C@H](C)OC2=O)c1O [Compound 72, N-((3S,7R,8S,9S)-8-benzyl-7-((benzyloxy)methoxy)-9-methyl-2-oxo-1,5-dioxonan-3-yl)-3-hydroxy-4-methoxypicolinamide] | – | – | – | – | – | > 70 | < 70 | < 70 | < 70 | – |
| COCCC(=O)Oc1c(OC)ccnc1C(=O)N[C@H]1COC[C@H](Oc2ccccc2)[C@@H](Cc2ccccc2)[C@H](C)OC1=O [Compound 73] | > 70 | > 70 | > 70 | > 70 | – | – | – | – | – | – |
| COc1ccnc(C(=O)N[C@H]2COC[C@H](Oc3ccccc3)[C@@H](Cc3ccccc3)[C@H](C)OC2=O)c1O [Compound 77] | – | – | – | – | 49 to 54 | – | – | – | – | – |
| COc1ccnc(C(=O)N[C@H]2COC[C@H](OCC(C)C)[C@@H](Cc3ccccc3)[C@H](C)OC2=O)c1OC(C)=O [Compound 79] | > 70 | > 70 | > 70 | > 70 | 52 to 57 | – | – | – | – | – |
| COc1ccnc(C(=O)N[C@H]2COC[C@H](OCC3CC3)[C@@H](Cc3ccccc3)[C@H](C)OC2=O)c1OCOC(C)=O [Compound 80] | > 70 | > 70 | > 70 | > 70 | – | > 70 | > 70 | > 70 | > 70 | – |
| COc1ccnc(C(=O)N[C@H]2COC[C@H](Oc3ccccc3)[C@@H](Cc3ccccc3)[C@H](C)OC2=O)c1OC(C)=O [Compound 81] | > 70 | > 70 | > 70 | > 70 | – | – | – | – | – | – |
| COc1ccnc(C(=O)N[C@H]2COC[C@H](OCC3CC3)[C@@H](Cc3ccccc3)[C@H](C)OC2=O)c1O [Compound 83] | – | – | – | – | – | > 70 | > 70 | > 70 | > 70 | – |
| COc1ccnc(C(=O)N[C@H]2COC[C@H](Oc3ccccc3)[C@@H](Cc3ccccc3)[C@H](C)OC2=O)c1OCOC(C)=O [Compound 84] | > 70 | > 70 | > 70 | > 70 | – | – | – | – | – | – |
| COc1ccnc(C(=O)N[C@H]2COC[C@H](OCC(C)C)[C@@H](Cc3ccccc3)[C@H](C)OC2=O)c1OCOC(C)=O [Compound 85] | > 70 | > 70 | > 70 | > 70 | – | > 70 | > 70 | < 70 | > 70 | – |
| COc1ccnc(C(=O)N[C@H]2COC[C@H](OCC3CC3)[C@@H](Cc3ccccc3)[C@H](C)OC2=O)c1OC(C)=O [Compound 87] | – | – | – | – | 54 to 59 | > 70 | > 70 | > 70 | > 70 | – |
